Each structure is given as a SMILES string.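 Compound exposure: 48 hours, 5 concentrations, 96-well plates. At the TGI there is no net growth.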

Some test systems named below: MDA-N; SN12C renal; SNB-19 CNS; SK-MEL-2 melanoma; HT29 colon; OVCAR-3 ovarian; ACHN renal.
Common to all, as to experiment: inhibition of tumour cell growth, NCI panel, 48 h

`CC(=O)O[C@H]1CC[C@@]2(C)C(=CC[C@H]3[C@@H]4C/C(=C\c5ccncc5)[C@H](OC(C)=O)[C@@]4(C)CC[C@@H]32)C1`: the TGI was found to be 46.8 µM in the test on MDA-N; 33 µM in the test on SN12C renal; 22.2 µM in the test with SNB-19 CNS; 33.3 µM with SK-MEL-2 melanoma; 20.3 µM in the test on HT29 colon; 23.4 µM with OVCAR-3 ovarian. The compound also showed a TGI in the test on ACHN renal of 33.6 µM.

With `CC(=O)OC(C#N)CC(C)(C)/[N+]([O-])=[N+](\[O-])C(C)(C)CC(C#N)OC(C)=O` (centres undefined), the TGI was 30.3 µM with MDA-N; 35.7 µM in the test on SN12C renal; 67.6 µM in the test on SNB-19 CNS; greater than 100 µM in the test on SK-MEL-2 melanoma; 65.8 µM with HT29 colon; 40 µM in the test with OVCAR-3 ovarian. The compound also returned a TGI in the test with ACHN renal of 24.5 µM.

For `COc1cc2c(cc1O)-c1c(OC)c(O)cc3c1C(C2)N(C)CC3` (centres undefined), the TGI in the test on MDA-N, in the test with SN12C renal, with SNB-19 CNS, with SK-MEL-2 melanoma, with HT29 colon and in the test with OVCAR-3 ovarian was greater than 100 µM each time. For the same compound, in the test on ACHN renal, the TGI is greater than 100 µM.

In the case of `Cc1ccc(Nc2cc(=O)[nH]c(=O)[nH]2)cc1CS`, the TGI in the test with MDA-N, in the test on SN12C renal, with SNB-19 CNS, in the test on SK-MEL-2 melanoma, in the test on HT29 colon and in the test on OVCAR-3 ovarian was greater than 100 µM throughout. The TGI with ACHN renal was greater than 100 µM.

In the case of `CC(=O)[C@]1(C)[C@H](C)O[C@](C)(CO)[C@H]1O[Si](C)(C)c1ccccc1`, the TGI with MDA-N, in the test with SN12C renal, in the test on SNB-19 CNS, in the test with SK-MEL-2 melanoma, in the test with HT29 colon and in the test on OVCAR-3 ovarian was greater than 100 µM throughout. Also, the TGI with ACHN renal is greater than 100 µM.

For `CC1C(=O)CC[C@@]2(C)C(=O)CCCC12O` (some centres undefined), the TGI in the test with MDA-N, in the test on SN12C renal, with SNB-19 CNS, in the test with SK-MEL-2 melanoma, in the test on HT29 colon and in the test on OVCAR-3 ovarian was greater than 100 µM each time. In the test on ACHN renal, the TGI was greater than 100 µM.

As for `Cc1cc(S(=O)(=O)Nc2nc(N)nc(N(C)C)n2)c(SC(C(=O)O)c2ccccc2)cc1Cl` (centres undefined), the TGI with MDA-N, with SN12C renal, with SNB-19 CNS, in the test on SK-MEL-2 melanoma, with HT29 colon and with OVCAR-3 ovarian was greater than 10 µM each time. This compound also displayed a TGI in the test on ACHN renal greater than 10 µM.

`O=C1C=C(NCCc2cc(Cl)c(O)c(Cl)c2)C(=O)c2[nH]cnc21`: the TGI in the test with MDA-N was 33.8 µM; in the test with SN12C renal, greater than 100 µM; with SNB-19 CNS, greater than 100 µM; in the test on SK-MEL-2 melanoma, 57.6 µM; in the test on HT29 colon it was greater than 100 µM; with OVCAR-3 ovarian, 47.2 µM. This compound also returned a TGI with ACHN renal greater than 100 µM.

As to `CN1CC(S(=O)(=O)c2ccccc2)CC(S(=O)(=O)c2ccccc2)C1c1ccccc1` (centres undefined), the TGI in the test with MDA-N came out at 28.8 µM; in the test on SN12C renal it was 25.7 µM; in the test on SNB-19 CNS, 59.6 µM; in the test with SK-MEL-2 melanoma it was 20 µM; with HT29 colon, 29.6 µM; in the test on OVCAR-3 ovarian, 27.8 µM. In the test with ACHN renal, the TGI turned out to be 26.9 µM.

On to `Cc1ccc(Cc2nn(C)c(=O)n2-n2cccc2)cc1`, for which the TGI in the test with MDA-N, in the test with SN12C renal, in the test on SNB-19 CNS, with SK-MEL-2 melanoma, in the test on HT29 colon and in the test with OVCAR-3 ovarian was greater than 100 µM each time. This compound also registered a TGI with ACHN renal greater than 100 µM.

Regarding `Cc1nc2ccc(S(=O)(=O)Nc3ccccc3Cl)cc2c(=O)n1NC(=O)CNc1ccccc1Cl`, the TGI in the test with MDA-N, in the test on SN12C renal, with SNB-19 CNS, in the test on SK-MEL-2 melanoma, with HT29 colon and in the test on OVCAR-3 ovarian was greater than 100 µM throughout. Besides, the TGI in the test with ACHN renal is greater than 100 µM.

Take `O=c1[nH]cnc2c1ncn2C1SC(CO)C(O)C1O` (centres undefined): the TGI in the test on MDA-N, in the test with SN12C renal, in the test on SNB-19 CNS, in the test on SK-MEL-2 melanoma, with HT29 colon and in the test with OVCAR-3 ovarian was greater than 100 µM each time. Also, the TGI in the test with ACHN renal is greater than 100 µM.

Turning to `Nc1ccc(-c2nc3ccccc3s2)cc1I`, the TGI with MDA-N, with SN12C renal, with SNB-19 CNS, with SK-MEL-2 melanoma, in the test on HT29 colon and in the test with OVCAR-3 ovarian was greater than 100 µM throughout. The TGI in the test with ACHN renal is greater than 100 µM.

Take `Cc1cn(C2CC(N=[N+]=[N-])C(CO)O2)c(=O)n(CCCCO)c1=O` (centres undefined): the TGI with MDA-N, in the test on SN12C renal, with SNB-19 CNS, in the test with SK-MEL-2 melanoma, with HT29 colon and in the test with OVCAR-3 ovarian was greater than 100 µM each time. This compound also came in with a TGI in the test with ACHN renal greater than 100 µM.

`N#Cc1c(-c2ccccc2)c(C#N)c(=S)n(C2OCC(O)C(O)C2O)c1N` (centres undefined): the TGI in the test with MDA-N, in the test with SN12C renal, in the test on SNB-19 CNS, in the test with SK-MEL-2 melanoma, in the test on HT29 colon and with OVCAR-3 ovarian was greater than 100 µM each time. In addition, the TGI with ACHN renal is greater than 100 µM.

In the case of `COC(=O)c1c2c(cc3c1CC1(C3)Cc3ccc4c(c3C1=O)CCC4)CCC2` (centres undefined), the TGI is 2.81 µM in the test on MDA-N; greater than 100 µM in the test with SN12C renal; 62.1 µM with SNB-19 CNS; 27 µM in the test with SK-MEL-2 melanoma; 8.45 µM in the test on HT29 colon; greater than 31.5 µM in the test on OVCAR-3 ovarian. Besides, the TGI in the test with ACHN renal was greater than 31.6 µM.

`CCN(CC)CCNc1ccc2ncn3c4c(OC)ccc(=O)c4c(O)c1c23`: the TGI in the test on MDA-N was greater than 100 µM; with SN12C renal, greater than 100 µM; in the test with SNB-19 CNS, greater than 100 µM; in the test with SK-MEL-2 melanoma, greater than 100 µM; in the test on HT29 colon, greater than 57.8 µM; in the test on OVCAR-3 ovarian it was greater than 100 µM. In the test with ACHN renal, the TGI is greater than 100 µM.

For `O=C1CSC(c2ccccc2[N+](=O)[O-])N1c1ccc(-n2c(-c3ccccc3)nc3ccccc3c2=O)cc1` (centres undefined), the TGI with MDA-N, in the test on SN12C renal, in the test on SNB-19 CNS, in the test with SK-MEL-2 melanoma, in the test with HT29 colon and with OVCAR-3 ovarian was greater than 100 µM in each case. The TGI in the test with ACHN renal was greater than 100 µM.

Turning to `O=C1c2ccccc2-n2c1nc1cc(Cl)ccc1c2=O`, the TGI in the test on MDA-N is 29.1 µM; with SN12C renal, greater than 100 µM; in the test with SNB-19 CNS it was greater than 100 µM; in the test on SK-MEL-2 melanoma, greater than 100 µM; with HT29 colon, greater than 100 µM; in the test on OVCAR-3 ovarian, greater than 100 µM. The compound further came in with a TGI in the test on ACHN renal greater than 100 µM.

In the case of `C[N+]1(CCCC[N+]2(C)CCCCCCC2)CCCCCCC1`, the TGI in the test with MDA-N, in the test with SN12C renal, in the test on SNB-19 CNS, in the test on SK-MEL-2 melanoma, in the test with HT29 colon and in the test with OVCAR-3 ovarian was greater than 100 µM each time. In addition, in the test on ACHN renal, the TGI was greater than 100 µM.

As to `CCN(CC)CCOCC1CCCN2CCCCC12` (centres undefined), the TGI in the test with MDA-N, with SN12C renal, in the test on SNB-19 CNS, with SK-MEL-2 melanoma, in the test with HT29 colon and with OVCAR-3 ovarian was greater than 100 µM each time. This compound also displayed a TGI in the test on ACHN renal greater than 100 µM.

Take `CN(C)C=Nc1c(Br)cc(Br)c2nonc12`: the TGI with MDA-N, in the test with SN12C renal, in the test on SNB-19 CNS, with SK-MEL-2 melanoma, in the test with HT29 colon and with OVCAR-3 ovarian was greater than 100 µM each time. The compound further gave a TGI in the test with ACHN renal greater than 100 µM.

As to `CCCCCCCCCCCCCCC[C@@H](O)C[N+](C)(C)CCO`, the TGI in the test on MDA-N was 29.5 µM; in the test on SN12C renal it was 50.8 µM; with SNB-19 CNS it was 3.81 µM; in the test with SK-MEL-2 melanoma it was 44.3 µM; in the test on HT29 colon, 4.62 µM; in the test on OVCAR-3 ovarian, greater than 93.6 µM. Moreover, the TGI in the test on ACHN renal worked out at 24.1 µM.

For the compound `COc1ccc2[nH]cc(CN3CCC(CO)(c4ccccc4)CC3)c2c1`, the TGI with MDA-N is 38.3 µM; in the test with SN12C renal, greater than 100 µM; in the test on SNB-19 CNS, greater than 100 µM; with SK-MEL-2 melanoma it was 55.3 µM; in the test with HT29 colon, greater than 100 µM; in the test with OVCAR-3 ovarian it was greater than 100 µM. In the test on ACHN renal, this compound yielded a TGI of 47.8 µM.

With `Cc1ccc(C(=O)c2[nH]c(Nc3ccc(Cl)cc3)c(C(=S)Nc3ccccc3)c2N)cc1`, the TGI was 20.6 µM in the test on MDA-N; 27.4 µM with SN12C renal; 21.9 µM in the test on SNB-19 CNS; 31.7 µM in the test on SK-MEL-2 melanoma; 16.8 µM in the test on HT29 colon; 56.8 µM in the test with OVCAR-3 ovarian. The compound further returned a TGI in the test on ACHN renal of 10.7 µM.

For `COC(=O)CCSC1=CC(=O)c2nc3ccccc3c3ccnc1c23`, the TGI was 87.2 µM with MDA-N; 40.7 µM in the test on SN12C renal; greater than 100 µM with SNB-19 CNS; greater than 70.1 µM in the test with SK-MEL-2 melanoma; 34.1 µM in the test with HT29 colon; 11.4 µM in the test on OVCAR-3 ovarian. Also, the TGI in the test with ACHN renal is 48.3 µM.

With `Nc1nc(Sc2ccc([N+](=O)[O-])cn2)c2[nH]cnc2n1`, the TGI is 34.6 µM with MDA-N; 29.4 µM in the test on SN12C renal; 72.1 µM in the test on SNB-19 CNS; 10.2 µM in the test on SK-MEL-2 melanoma; greater than 74.3 µM in the test on HT29 colon; greater than 75 µM in the test with OVCAR-3 ovarian. Also, the TGI in the test with ACHN renal is greater than 73.5 µM.

Source of the values: PubChem BioAssay (NCI).
